# Laboratory results from patent US6642227B2, “Inhibitors of c-Jun N-terminal kinases (JNK) and other protein kinases” (Vertex Pharmaceuticals Incorporated, priority 2001, dated 2003).
# Target: human Lck kinase (UniProt P06239)
# Experiment: Lck inhibition assay (A: radioactivity-based or B: spectrophotometric coupled-enzyme assay)
# Format: biochemical
# Conditions: read-out: Lck Activity (Ki rating)
# Experimental: The compounds were evaluated as inhibitors of human Lck kinase using either a radioactivity-based assay or spectrophotometric assay.
# The compounds were assayed as inhibitors of full length bovine thymus Lck kinase (from Upstate Biotechnology, cat. no. 14-106) expressed and purified from baculo viral cells. Lck kinase activity was monitored by following the incorporation of ^33p from ATP into the tyrosine of a random poly Glu-Tyr polymer substrate of composition, Glu:Tyr=4:1 (Sigma, cat. no. P-0275). The following were the final concentrations of the assay components: 0.025 M HEPES, pH 7.6, 10 mM MgCl2, 2 mM DTT, 0.25 mg/ml BSA, 10 μM ATP (1-2 μCi ^33P-ATP per reaction), 5 mg/ml poly Glu-Tyr, and 1-2 units of recombinant human […] kinase. In a typical assay, all the reaction components with the exception of ATP were pre-mixed and aliquoted into assay plate wells. Inhibitors dissolved in DMSO were added to the wells to give a final DMSO concentration of 2.5%. The assay plate was incubated at 30 C. for 10 min before initiating the reaction with ^33P-ATP. After 20 min of reaction, the reactions were quenched with 150 μl of 10% trichloroacetic acid (TCA) containing 20 mM Na3PO4. The quenched samples were then transferred to a 96-well filter plate (Whatman, UNI-Filter GF/F Glass Fiber Filter, cat no. 7700-3310) installed on a filter plate vacuum manifold. Filter plates were washed four times with 10% TCA containing 20 mM Na3PO4 and then 4 times with methanol. 200 μl of scintillation fluid was then added to each well. The plates were sealed and the amount of radioactivity associated with the filters was quantified on a TopCount scintillation counter. The radioactivity incorporated was plotted as a function of the inhibitor concentration. The data was fitted to a competitive inhibition kinetics model to get the Ki for the compound.
# The ADP produced from ATP by the human recombinant Lck kinase-catalyzed phosphorylation of poly Glu-Tyr substrate was quanitified using a coupled enzyme assay (Fox et al (1998) Protein Sci 7, 2249). In this assay one molecule of NADH is oxidised to NAD for every molecule of ADP produced in the kinase reaction. The disappearance of NADH can be conveniently followed at 340 nm.
# The following were the final concentrations of the assay components: 0.025 M HEPES, pH 7.6, 10 mM MgCl2, 2 mM DTT, 5 mg/ml poly Glu-Tyr, and 50 nM of recombinant human Lck kinase. Final concentrations of the components of the coupled enzyme system were 2.5 mM phosphoenolpyruvate, 200 μM NADH, 30 μg/ml pyruvate kinase and 10 μg/ml lactate dehydrogenase.
# In a typical assay, all the reaction components with the exception of ATP were pre-mixed and aliquoted into assay plate wells. Inhibitors dissolved in DMSO were added to the wells to give a final DMSO concentration of 2.5%. The assay plate was incubated at 30° C. for 10 min before initiating the reaction with 150 μM ATP. The absorbance change at 340 nm with time, the rate of the reaction, was monitored on a molecular devices plate reader. The data of rate as a function of the inhibitor concentration was fitted to competitive inhibition kinetics model to get the Ki for the compound.
row,SMILES,Ki
1,CCN1CCN(CCCOc2cccc(Nc3nccc(-c4sc(SC)c(C#N)c4C4CCCCC4)n3)c2)CC1 [VI-9],< 100 nM
2,CSc1sc(-c2ccnc(Nc3cccc(OCCCN4CCC(CO)CC4)c3)n2)c(-c2cccc(O)c2)c1C#N [VI-129],< 100 nM
3,CSc1sc(-c2ccnc(Nc3cccc(OCCCO)c3)n2)c(-c2cccc(OCc3ccccc3)c2)c1C#N [VI-124],100 to 1000 nM
4,"N#Cc1c(SCc2ccc(O)cc2)sc(-c2ccnc(Nc3ccccc3)n2)c1-c1ccccc1 [IIa-39, 2-(4-Hydroxy-benzylsulfanyl)-4-phenyl-5-(2-phenylamino-pyrimidin-4-yl)-thiophene-3-carbonitrile]",< 100 nM
5,CSc1sc(-c2ccnc(Nc3cccc(OCCCN4CCN(Cc5ccncc5)CC4)c3)n2)c(C2CCCCC2)c1C#N [VI-11],< 100 nM
6,CSc1sc(-c2ccnc(Nc3cccc(OCCCN4CCN(CCO)CC4)c3)n2)c(C2CCCCC2)c1C#N [VI-7],< 100 nM
7,CSc1sc(-c2ccnc(Nc3cccc(OCCCN4CCNCC4)c3)n2)c(-c2cccnc2)c1C#N [VI-123],100 to 1000 nM
8,CSc1sc(-c2ccnc(Nc3cccc(NC(=O)CCC4NC(=O)CNC4=O)c3)n2)c(-c2cccnc2)c1C#N (centres unmarked) [VI-139],< 100 nM
9,CSc1sc(-c2ccnc(Nc3cccc(OCCCN4CCN(CCO)CC4)c3)n2)c(-c2cccc(O)c2)c1C#N [VI-128],< 100 nM
10,CSc1sc(-c2ccnc(Nc3cccc(OCCCN4CCC[C@H]4CO)c3)n2)c(C2CCCCC2)c1C#N [VI-6],< 100 nM
11,"CSc1sc(-c2ccnc(Nc3cccc(NC(=O)CC4CC4)c3)n2)c(-c2cccnc2)c1C#N [VI-138, 3-cyano-4-(3-pyridyl)-5-[2-(3-N-cyclopropylacetamido)-aminophenylamino]-pyrimidin-4-yl-2-thiomethyl thiophene]",< 100 nM
12,"CSc1sc(-c2nc(Nc3cccc(N)c3)ncc2C)c(C2CCCCC2)c1C#N [Compound V-8, 5-[2-(3-Aminophenylamino)-5-methyl-pyrimidin-4-yl]-4-cyclohexyl-2-methylsulfanyl-thiophene-3-carbonitrile]",< 100 nM
13,CSc1sc(-c2ccnc(Nc3cccc(OCCCN4CCCC4)c3)n2)c(C2CCCCC2)c1C#N [VI-12],< 100 nM
14,CSc1sc(-c2ccnc(Nc3cccc(OCCCN4CCC(CO)CC4)c3)n2)c(C2CCCCC2)c1C#N [VI-5],< 100 nM
15,CSc1sc(-c2ccnc(Nc3cccc(OCCCn4cnc(C)c4)c3)n2)c(C2CCCCC2)c1C#N [VI-14],< 100 nM
16,CSc1sc(-c2ccnc(Nc3cccc(OCCCN4CCSC4)c3)n2)c(C2CCCCC2)c1C#N [VI-17],< 100 nM
17,"CSc1sc(-c2ccnc(Nc3cccc(S(N)(=O)=O)c3)n2)c(-c2ccccc2)c1C#N [IIa-38, 3-[4-(4-cyano-5-methylsulfanyl-3-phenyl-thiophen-2-yl)-pyrimidin-2-ylamino]-benzenesulfonamide]",< 100 nM
18,CSc1sc(-c2ccnc(Nc3cccc(NC(=O)CCN4CCCCC4)c3)n2)c(-c2cccnc2)c1C#N [VI-131],< 100 nM
19,CSc1sc(-c2ccnc(Nc3cccc(NC(=O)Cc4csc(N)n4)c3)n2)c(-c2cccnc2)c1C#N [VI-137],< 100 nM
20,CSc1sc(-c2ccnc(Nc3cccc(OCCCN4CCNCC4)c3)n2)c(-c2cccc(OCc3ccccc3)c2)c1C#N [VI-125],100 to 1000 nM
21,CSc1sc(-c2ccnc(Nc3cccc(NC(=O)Cc4ccccn4)c3)n2)c(-c2cccnc2)c1C#N [VI-136],< 100 nM
22,CSc1sc(-c2ccnc(Nc3cccc(OCCCN4CCNCC4)c3)n2)c(C2CCCCC2)c1C#N [VI-10],< 100 nM
23,CSc1sc(-c2ccnc(Nc3cccc(OCCCN4CCC(O)CC4)c3)n2)c(C2CCCCC2)c1C#N [VI-4],< 100 nM
24,CSc1sc(-c2ccnc(Nc3cccc(OCCCN4CCC(CO)CC4)c3)n2)c(-c2cccc(OCc3ccccc3)c2)c1C#N [VI-127],100 to 1000 nM
25,CSc1sc(-c2ccnc(Nc3cccc(OCCCNCCO)c3)n2)c(C2CCCCC2)c1C#N [VI-3],< 100 nM
26,"CSc1sc(-c2ccnc(Nc3cccc(O)c3)n2)c(-c2ccccc2)c1C#N [IIa-40, 5-[2-(3-Hydroxy-phenylamino)-pyrimidin-4-yl]-2-methylsulfanyl-4-phenyl-thiophene-3-carbonitrile]",< 100 nM
